# Measurements as given in patent US20080108633A1, “Use 540” (AstraZeneca AB, priority 2006, published 2008).
# How the values were obtained:
# [1] = molecular target: T1, human Trk A kinase (Homo sapiens, UniProt P04629); assay: Trk A kinase assay (Alphascreen); type: biochemical; details: 70 μM ATP, 20 minutes, room temperature
# T1 construct: HIS; made in house; host or cells: SF9 cells
# Description: After incubation of the kinase with a biotinylated substrate and adenosine triphosphate (ATP) for 20 minutes at room temperature, the kinase reaction was stopped by the addition of 30 mM ethylenediaminetetraacetic acid (EDTA). The reaction was performed in 384 well microtitre plates and the reaction products were detected with the addition of strepavidin coated Donor Beads and phosphotyrosine-specific antibodies coated Acceptor Beads using the EnVision Multilabel Plate Reader after an overnight incubation at room temperature.
# [2] = system: carrageenan-induced monoarthritis in rat; assay: Monoarthritis induced by carrageenan, Paw Print setup (hindpaw weight-bearing, "Walking pain"); type: in vivo; details: for difference in weight bearing between the hind paws: three hours after carrageenan (two hours after administration), vehicle group 30.2±3.2%, mean ±SEM, n=8
# Description: The compounds used according to the invention when given by systemic administration to mice or rats, specifically reduce pain in the rat carrageenan test as described by Tonussi and Ferreira (Pain 1992, 48, 421-427). One single injection of carrageenan directly into the rat knee joint produces symptoms peaking at 3 to 4 hours and lasting for one to two days, and which are sensitive to treatment by most anti-nociceptive drugs (Tonussi and Ferreira, Pain 1992, 48, 421-427). Under isoflurane anesthesia, 50 μL of carrageenan (7.5 mg/mL) was injected into the left tibio-tarsal (ankle) joint from the dorsal side. This injection causes a localized inflammation increasing to a maximum between 4 h to 8 h after induction, after which it gradually decreases, and the animals display decreased weight bearing on and guarding of the limb. The Paw Print walkway consists of a 100×10 cm path with an access point at one short end and an exit at the other, and the rats are trained to make a swift, continuous passage. The walkway has a glass floor where light is projected into one long edge via fiber optics. Projecting the light in this fashion allows for virtually complete internal reflection within the glass floor. Only where an object touches the glass, such as the placement of a rat paw, light is scattered at the point of contact and produces an illuminated print (Betts, Duckworth, Eng. Med. 1978, 7, 223-228) that is recorded by a wide-angle camera placed under the walkway. The light intensity (range 0-255) of the illumination depends on the degree of contact against the floor and increases with the applied pressure (Clarke, Physiology & Behavior 1995, 58, 415-419). The Paw Print setup is a modified version of the CatWalk introduced by […], van Laar, Veldhuis, Gispen (J. Neurotrauma 2001, 18, 187-201), and has a computerized gait detection algorithm extracting several parameters pertaining to the rat's gait pattern and weight-bearing. The animals were trained to cross the walkway twice, one and two days before induction of monoarthritis. Recordings were subsequently made on the day of testing, immediately before, and three and five hours after carrageenan injection, corresponding to two and four hours after per oral administration of test compound. The following parameters were used for analysis: Weight-bearing per paw=The total sum of maximum light intensities for all pixels in the print of one paw is multiplied by the number of pixels of the print area. A paw placement consists of a number of pixels with light intensity above a certain threshold value (80 in this study). During the time course of one paw placement, a maximum value of light intensity is recorded for each pixel. Based on the weight-bearing results, the Paw Print algorithm chooses the median print per paw in one walkway crossing. The median weight-bearing of each paw constitutes a percentage of the sum of all four paws' median weight-bearing results. The difference in percent weight-bearing between the two hind paws is shown (“Walking pain”). The test compounds were administered 60 min after induction of monoarthritis. […] Results were analysed using 1-Way ANOVA followed by Newman-Keuls for comparison between treatment groups for data obtained at each time-point after administration. The level of significance was set at p<0.05 (SigmaStat® 2.03).
# T1 sequence (P04629 442-796): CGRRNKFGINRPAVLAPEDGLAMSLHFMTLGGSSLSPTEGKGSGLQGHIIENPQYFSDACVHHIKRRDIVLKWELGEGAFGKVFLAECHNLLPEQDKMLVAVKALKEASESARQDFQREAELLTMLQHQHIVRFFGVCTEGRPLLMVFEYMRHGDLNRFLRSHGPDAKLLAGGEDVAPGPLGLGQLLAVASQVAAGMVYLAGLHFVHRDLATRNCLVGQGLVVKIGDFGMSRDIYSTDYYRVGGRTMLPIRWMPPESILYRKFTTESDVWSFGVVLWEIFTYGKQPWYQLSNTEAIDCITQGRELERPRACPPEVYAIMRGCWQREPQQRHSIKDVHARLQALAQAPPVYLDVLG
smiles,measurement,setting,value
"C[C@H](Nc1ncc(F)c(Nc2cc(C3CC3)[nH]n2)n1)c1ccc(F)cn1 [(S)-5-Fluoro-N^4-(5-cyclopropyl-1H-pyrazol-3-yl)-N^2-(1-(5-fluoropyridin-2-yl)ethyl)pyrimidine-2,4-diamine]",IC50,[1],10 nM
"C[C@H](Nc1ncc(Cl)c(Nc2cc(C3CC3)[nH]n2)n1)c1ccc(F)cn1 [(S)-5-Chloro-N^4-(5-cyclopropyl-1H-pyrazol-3-yl)-N^2-(1-(5-fluoropyridin-2-yl)ethyl)pyrimidine-2,4-diamine]",IC50,[1],8 nM
"C[C@H](Nc1ncc(Br)c(Nc2cc(C3CC3)[nH]n2)n1)c1ccc(F)cn1 [(S)-5-Bromo-N^4-(5-cyclopropyl-1H-pyrazol-3-yl)-N^2-(1-(5-fluoropyridin-2-yl)ethyl)pyrimidine-2,4-diamine]",IC50,[1],5 nM
"CC(C)Oc1cc(Nc2nc(N[C@@H](C)c3ccc(F)cn3)ncc2Cl)n[nH]1 [5-Chloro-N^2-[(1S)-1-(5-fluoropyridin-2-yl)ethyl]-N^4-(5-isopropoxy-1H-pyrazol-3-yl)pyrimidine-2,4-diamine]",difference in weight bearing between the hind paws,[2]; 30 μmol/kg per oral,9.2±4.0%
same,difference in weight bearing between the hind paws,[2]; 120 μmol/kg per oral,14.9±4.4%
same,effect on the inflammatory pain induced by intra-articular ankle injection of carrageenan,"[2]; all doses (30 μmol/kg, 60 μmol/kg p.o.)",significant effect
same,hindpaw weight distribution compared to the vehicle group,"[2]; all three doses 30, 60 and 120 μmol/kg per oral, both at two and four hours after administration, p<0.05",significantly reduced
same,dose dependence of the effect on hindpaw weight distribution,"[2]; dose interval tested, 30-120 μmol/kg per oral",no apparent dose dependence
